From patent publication US20200079766A1, “MONOCYCLIC OGA INHIBITOR COMPOUNDS” (Janssen Pharmaceutica NV, priority 2016, published 2020)

Assays:
[1] = biological target: T1, recombinant human Meningioma Expressed Antigen 5 (MGEA5), also referred to as O-GlcNAcase (OGA) (Homo sapiens, UniProt O60502); experiment: OGA biochemical assay: inhibition of FM-GlcNAc hydrolysis, fluorescence; protocol A (10 nM OGA, 1 h) or protocol B (2 nM OGA, 6 h); conditions: Enzymatic protocol B (2 nM OGA, 6 h); for IC50: read-out: Enzymatic hOGA, pIC50 (converted)
T1 construct: Full length OGA enzyme was purchased at OriGene (cat # TP322411); purchased OriGene TP322411
T1 sequence (O60502 1-916): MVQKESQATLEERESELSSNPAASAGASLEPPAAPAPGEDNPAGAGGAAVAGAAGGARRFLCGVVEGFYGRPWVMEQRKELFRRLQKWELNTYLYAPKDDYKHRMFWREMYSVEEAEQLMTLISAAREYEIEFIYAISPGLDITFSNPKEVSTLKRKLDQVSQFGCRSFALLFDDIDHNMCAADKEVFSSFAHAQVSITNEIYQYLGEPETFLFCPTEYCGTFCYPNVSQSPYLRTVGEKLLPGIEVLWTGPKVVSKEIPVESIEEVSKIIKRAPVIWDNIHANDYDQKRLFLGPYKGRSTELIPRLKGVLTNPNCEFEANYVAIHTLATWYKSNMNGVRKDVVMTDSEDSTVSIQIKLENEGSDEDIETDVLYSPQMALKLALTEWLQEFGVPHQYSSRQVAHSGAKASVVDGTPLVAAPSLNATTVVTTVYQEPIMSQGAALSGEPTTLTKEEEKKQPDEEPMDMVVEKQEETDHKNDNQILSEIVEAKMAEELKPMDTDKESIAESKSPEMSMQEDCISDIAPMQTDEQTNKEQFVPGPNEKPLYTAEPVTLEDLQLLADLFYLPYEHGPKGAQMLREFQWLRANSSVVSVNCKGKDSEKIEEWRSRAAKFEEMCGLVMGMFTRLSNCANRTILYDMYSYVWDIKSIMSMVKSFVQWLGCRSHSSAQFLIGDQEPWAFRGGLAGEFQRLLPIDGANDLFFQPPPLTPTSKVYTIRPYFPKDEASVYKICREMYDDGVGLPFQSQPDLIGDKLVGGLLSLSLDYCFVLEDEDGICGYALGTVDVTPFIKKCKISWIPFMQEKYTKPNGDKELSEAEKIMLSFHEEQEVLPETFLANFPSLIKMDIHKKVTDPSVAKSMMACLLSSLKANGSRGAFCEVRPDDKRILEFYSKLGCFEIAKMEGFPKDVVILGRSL
From the text: The assay is based on the inhibition of the hydrolysis of fluorescein mono-3-D-N-Acetyl-Glucosamine (FM-GlcNAc) (Mariappa et al. 2015, Biochem J 470:255) by the recombinant human Meningioma Expressed Antigen 5 (MGEA5), also referred to as O-GlcNAcase (OGA). The hydrolysis FM-GlcNAc (Marker Gene technologies, cat # M1485) results in the formation of ß-D-N-glucosamineacetate and fluorescein. The fluorescence of the latter can be measured at excitation wavelength 485 nm and emission wavelength 538 nm. An increase in enzyme activity results in an increase in fluorescence signal. Full length OGA enzyme was purchased at OriGene (cat # TP322411). The enzyme was stored in 25 mM Tris.HCl, pH 7.3, 100 mM glycine, 10% glycerol at −20° C. Thiamet G and GlcNAcStatin were tested as reference compounds (Yuzwa et al. 2008 Nature Chemical Biology 4:483; Yuzwa et al. 2012 Nature Chemical Biology 8:393). The assay was performed in 200 mM Citrate/phosphate buffer supplemented with 0.005% Tween-20. 35.6 g Na2HPO42H2O (Sigma, # C0759) were dissolved in 1 L water to obtain a 200 mM solution. 19.2 g citric acid (Merck, #1.06580) was dissolved in 1 L water to obtain a 100 mM solution. pH of the sodiumphosphate solution was adjusted with the citric acid solution to 7.2. The buffer to stop the reaction consists of a 500 mM Carbonate buffer, pH 11.0. 734 mg
FM-GlcNAc were dissolved in 5.48 mL DMSO to obtain a 250 mM solution and was stored at −20° C. OGA was used at a 10 nM (protocol A) or 2 nM (protocol B) concentration and FM-GlcNAc at a 100 uM final concentration. Dilutions were prepared in assay buffer.
50 nl of a compound dissolved in DMSO was dispensed on Black Proxiplate™ 384 Plus Assay plates (Perkin Elmer, #6008269) and 3 μl fl-OGA enzyme mix added subsequently. Plates were pre-incubated for 60 min at room temperature and then 2 μl FM-GlcNAc substrate mix added. […] Plates were briefly centrifuged for 1 min at 1000 rpm and incubate at room temperature for 1 h (10 nM OGA, protocol A) or 6 h (2 nM OGA, protocol B). To stop the reaction 5 μl STOP buffer were added and plates centrifuge again 1 min at 1000 rpm. Fluorescence was quantified in the Thermo Scientific Fluoroskan Ascent or the PerkinElmer EnVision with excitation wavelength 485 nm and emission wavelength 538 nm.
For analysis a best-fit curve is fitted by a minimum sum of squares method. From this an IC50 value and Hill coefficient was obtained. High control (no inhibitor) and low control (saturating concentrations of standard inhibitor) were used to define the minimum and maximum values.

[2] = test system: OGA in HEK293 cells inducible for P301L mutant human Tau (isoform 2N4R); experiment: OGA cellular assay: immunocytochemical detection of O-GlcNAcylated proteins (CTD110.6 antibody) after 6 h incubation; assay type: cell-based; conditions: for Emax / EC50: Homo sapiens, HEK293, 6 h; for Emax / Cellular Emax (%): maximum = Thiamet G 200 uM; for EC50: read-out: Cellular hOGA, pEC50 (converted)
Protocol: HEK293 cells inducible for P301L mutant human Tau (isoform 2N4R) were established at Janssen. Thiamet-G was used for both plate validation (high control) and as reference compound (reference EC50 assay validation). OGA inhibition is evaluated through the immunocytochemical (ICC) detection of O-GlcNAcylated proteins by the use of a monoclonal antibody (CTD110.6; Cell Signaling, #9875) detecting O-GlcNAcylated residues as previoulsy described (Dorfmueller et al. 2010 Chemistry & biology, 17:1250). Inhibition of OGA will result in an increase of O-GlcNAcylated protein levels resulting in an increased signal in the experiment. Cell nuclei are stained with Hoechst to give a cell culture quality control and a rough estimate of immediate compounds toxicity, if any. ICC pictures are imaged with a Perkin Elmer Opera Phenix plate microscope and quantified with the provided software Perkin Elmer Harmony 4.1.
Cells were propagated in DMEM high Glucose (Sigma, # D5796) following standard procedures. 2 days before the cell assay cells are split, counted and seeded in Poly-D-Lysine (PDL) coated 96-wells (Greiner, #655946) plate at a cell density of 12,000 cells per cm^2 (4,000 cells per well) in 100 μl of Assay Medium (Low Glucose medium is used to reduce basal levels of GlcNAcylation) (Park et al. 2014 The Journal of biological chemistry 289:13519). At the day of compound test medium from assay plates was removed and replenished with 90 μl of fresh Assay Medium. 10 μl of compounds at a 10 fold final concentration were added to the wells. Plates were centrifuged shortly before incubation in the cell incubator for 6 hours. DMSO concentration was set to 0.2%. Medium is discarded by applying vacuum. For staining of cells medium was removed and cells washed once with 100 μl D-PBS (Sigma, # D8537). From next step onwards unless other stated assay volume was always 50 μl and incubation was performed without agitation and at room temperature. Cells were fixed in 50 μl of a 4% paraformaldehyde (PFA, Alpha aesar, #043368) PBS solution for 15 minutes at room temperature. […] Before analysis samples were washed 2 times manually for 5 minutes in ICC base buffer.
Imaging is performed using Perkin Elmer Phenix Opera using a water 20× objective and recording 9 fields per well. Intensity readout at 488 nm is used as a measure of O-GlcNAcylation level of total proteins in wells. To assess potential toxicity of compounds nuclei were counted using the Hoechst staining. IC50-values are calculated using parametric non-linear regression model fitting. As a maximum inhibition Thiamet G at a 200 uM concentration is present on each plate. In addition, a concentration response of Thiamet G is calculated on each plate.

| Structure (SMILES) | Emax [1] [%] | IC50 [1] [nM] | Enzymatic Emax (%) [1] [%] | Enzymatic hOGA; pIC50 [1] | Emax [2] [%] | EC50 [2] [nM] | Cellular hOGA; pEC50 [2] | Cellular Emax (%) [2] [%] |
| --- | --- | --- | --- | --- | --- | --- | --- | --- |
| CC(=O)Nc1ncc(CN2CCC[C@H](Cc3nc(C)cnc3C)C2)s1 [compound 128] | 102 | 1.82 | – | – | 93.2 | 39.8 | – | – |
| CC(=O)Nc1ncc(CN2CC[C@H](Cc3cc(C)c(F)cn3)C2)s1 [compound 52] | 100 | 14.8 | – | – | 95.4 | 91.2 | – | – |
| CC(=O)Nc1ncc(CN2CCC[C@H](Nc3cc(C)nc(C)c3)C2)s1 [compound 9] | 103 | 3.72 | – | – | 102 | 47.9 | – | – |
| COc1cnc(C[C@H]2CCN(Cc3cnc(NC(C)=O)s3)C2)c(F)c1 [compound 48] | 100 | 12 | – | – | 83 | 66.1 | – | – |
| CC(=O)Nc1ncc(CN2CC[C@H](Cc3ccc(C)nc3)C2)s1 [compound 61] | – | – | 101.2 | 7.71 | – | – | 7.22 | 96.3 |
| CC(=O)Nc1ncc(CN2CC[C@@H](Cc3cc(C)nc(F)c3)C2)s1 [compound 111] | 103 | 30.9 | – | – | 97.4 | 52.5 | – | – |
| CC(=O)Nc1ncc(CN2CCC[C@H](Oc3ccnc(C)c3)C2)s1 (racemic) [compound 17] | 100 | 64.6 | – | – | 96.2 | 389 | – | – |
| CC(=O)Nc1ncc(CN2CCCC(c3ccnc(C)c3)C2)s1 (centres unmarked) [compound 6] | 101 | 27.5 | – | – | 98.7 | 27.5 | – | – |
| CC(=O)Nc1ncc(CN2CC[C@H](Cc3cc(C)c(C)cn3)C2)s1 [compound 69] | 103 | 6.17 | – | – | 101 | 74.1 | – | – |
| CC(=O)Nc1ncc(CN2CCC(Cc3cc(F)ncc3C)C2)s1 (centres unmarked) [compound 106] | 101 | 21.4 | – | – | 86.9 | 41.7 | – | – |
| COc1nc(C)ccc1C[C@H]1CCCN(Cc2cnc(NC(C)=O)s2)C1 [compound 126] | 100 | 1.38 | – | – | 97.5 | 11.5 | – | – |
| CC(=O)Nc1ncc(CN2CC[C@H](Cc3cc(C)cc(C)n3)C2)s1 [compound 85] | 101 | 8.71 | – | – | 86.9 | 46.8 | – | – |
| CC(=O)Nc1ncc(CN2CCCC(Cc3cc(C)nc(C)c3)C2)s1 (centres unmarked) [compound 27] | 99.6 | 2.45 | – | – | 118 | 5.25 | – | – |
| COc1nccnc1CC1CCN(Cc2cnc(NC(C)=O)s2)C1 (centres unmarked) [compound 67] | – | – | 100.9 | 7.70 | – | – | 6.92 | 84.5 |

More lines, main results first:

| Emax [1] [%] | IC50 [1] [nM] | Enzymatic Emax (%) [1] [%] | Enzymatic hOGA; pIC50 [1] | Structure (SMILES) | Emax [2] [%] | EC50 [2] [nM] | Cellular hOGA; pEC50 [2] | Cellular Emax (%) [2] [%] |
| --- | --- | --- | --- | --- | --- | --- | --- | --- |
| 102 | 6.31 | – | – | Cc1cc(CC2CCCN(C(C)c3ccc4scnc4c3)C2)cc(C)n1 (racemic) [compound 148] | 105 | 56.2 | – | – |
| 101 | 3.89 | – | – | CC(=O)Nc1ncc(C(C)N2CCCC(COc3cc(C)nc(C)c3)C2)s1 (racemic) [compound 133] | 98.9 | 11.2 | – | – |
| 100 | 6.92 | – | – | Cc1cc(O[C@@H]2CCCN(C(C)c3ccc4nccnc4c3)C2)cc(C)n1 (mixture of isomers) [compound 19] | 73.3 | 1380 | – | – |
| 102 | 4.9 | – | – | Cc1cc(CC2CCCN(C(C)c3ccc4c(c3)OCCO4)C2)cc(C)n1 (racemic) [compound 142] | 100 | 60.3 | – | – |
| 97 | 427 | – | – | Cc1cc(C[C@H]2CCN(C(C)c3ccc4nccnc4c3)C2)cc(C)n1 (mixture of isomers) [compound 100] | 23.1 | > 1000 | – | – |
| – | – | 101 | 6.81 | Cc1cc(CC2CCN(C(C)c3ccc4c(c3)OCCO4)C2)cc(C)n1.Cl.Cl (mixture of isomers) [compound 95] | – | – | <6 | 38.2 |
| 99 | 282 | – | – | Cc1cc(C[C@H]2CCCN(Cc3ccc4scnc4c3)C2)cc(C)n1 [compound 147] | 33.2 | > 1000 | – | – |
| 100 | 28.2 | – | – | CC(=O)Nc1ncc(C(C)N2CCCC(COc3cc(C)nc(C)c3)C2)s1 (single isomer, unassigned) [compound 134] | 79.5 | 52.5 | – | – |
| 98.4 | 309 | – | – | Cc1cc(C[C@H]2CCN(C(C)c3ccc4c(c3)OCO4)C2)cc(C)n1 (mixture of isomers) [compound 93] | 37.7 | > 1000 | – | – |
